Source: publication PMC8414802, “Hair Cell Generation in Cochlear Culture Models Mediated by Novel γ-Secretase Inhibitors” (Frontiers in Cell and Developmental Biology, 2021)
Values joined by “and” are separate entries in the source; they are usually repeats but may differ in a detail not shown here. Identical values can stand only once.

Assays:
[1] = Inner ear pharmacokinetics after transtympanic administration (perilymph, plasma; LC-MS/MS); assay type: in vivo, guinea pig
Protocol: Female albino Hartley guinea pigs, 250 g, from Charles River (France), housed in macrolon cages (2/cage; Innocage Rat Static-Innovive, Paris) with filter air, were maintained at 22 ± 2°C on a 12-h light cycle with standard A04C (UAR) diet and water “ad libitum.” Lgr5-GFP mice containing an EGFP-IRES-CreERT2 knock-in allele at the Lgr5 locus were obtained from the Jackson Labs (Stock 008875, C57BL/6J/RccHsd background). Atoh1-nGFP transgenic mice (C57Bl/6J background) were from Jane Johnson ([Lumpkin et al., 2003]). Wistar rats were obtained from Charles River.
γ-secretase inhibitors pharmacokinetic studies tested CPD3, CPD8 (Eli Lilly) or LY411575 (Stemcell Technologies) each formulated at 3.4 mg/ml in the following vehicles, 10% Poloxamer 338 (Sigma), 20% Poloxamer 338, 70% PEG400 (Sigma) or 1% hyaluronic acid (HA-700; Lifecore, Chaska, MN, United States) all prepared with PBS (pH 6.2). A single 70 μl injection of the formulated compound (total dose, 870 μg/kg) was delivered to the middle ear space of isoflurane-anesthetized guinea pigs by transtympanic administration. Perilymph from treated animals (perilymph volumes, >2 μl) was collected at time points up to 48 h post-administration (CILcare, Montpellier, France). Briefly, concentrations of each compound in perilymph and plasma, as well as controls prepared in artificial perilymph, were measured by LC-MS/MS on an AB Sciex, API 4000 mass spectrometer using an Onyx C18 5 μm 50^∗2.0 mm separation column (Oroxcell, Romainville, France).
To verify this, in vivo compound concentrations were measured in perilymph of guinea pigs after intratympanic delivery of GSIs into the middle ear. Initially, four vehicle formulations, with different physical properties, were tested, poloxamer 338 (POX; at 10% or 20%), hyaluronic acid (HA), or polyethylene glycol 400 (PEG). For this comparison only one GSI was prepared in each formulation (CPD3, 3.4 mg/ml) and a single dose was injected into the middle ear. Perilymph and plasma were sampled for 48 h (Figure 1D). […] Next, using only 10% POX as vehicle, inner ear adsorption was compared between CPD3, CPD8, and LY411575 by transtympanic injections (Figure 1D, inset). […] Each compound achieved levels several folds above their respective IC50s. The mean maximal perilymph concentration of CPD3 at 0.5 h post-dosing was 85,489 ng/ml (183 μM), then declined at 1 h to 12,928 ng/ml (27.7 μM), and at 6 h to 12,652 ng/ml (27.1 μM). GSIs in plasma samples were not detected (data not shown).

[2] = system: hair cells in sisomicin-treated rat OC explants; experiment: OC explants after sisomicin ototoxic damage; assay type: cell-based; details: sisomicin 200 μM 2 h
Protocol: To induce ototoxic damage, medium was removed from the OC cultures on the day after dissection and either 200 μM sisomicin (Sigma) in full otic medium, or 10^8 cfu/ml Streptococcus pneumoniae (described below) in ampicillin-free and FBS-free otic medium were added under the transwell membrane (lower compartment) of the cultivation system. After 2 h of exposure to the ototoxic insult, OCs were carefully washed 3 times and culture was continued for 4 days in fresh full otic medium.
Following culture, explants were washed (PBS) and fixed for 10 min at room temperature (RT) with 4% paraformaldehyde (PFA). […]
Dividing cells were labeled with, 5-ethyl-2′-deoxyuridine (EdU) and detected with Click-it Plus kit (Life Technologies). […]
Image processing was performed with the open-source image processing software FIJI, version 2.0 ([Schindelin et al., 2012]). Hair cells were quantified by counting Pou4f3 or Myo7a positive cells of the organ of Corti at three random microscopic fields for each cochlear region (base, middle, and apex) covering in total at least 1,200 μm. The number of hair cells (IHCs and OHCs) is expressed as unit per 100 μm.
FIGURE 3 GSI treatment after ototoxic damage. […] (B) Quantification of OHCs in sisomicin-treated explants (2 h; 200 μM), 4 days after ototoxic insult, and cultured in presence or absence of CPD3. […] (F) OHC quantification after bacteria-induced damage. […]

[3] = female, Hartley, guinea pig, perilymph, other: transtympanic (middle ear injection), 870 μg/kg, 10% POX vehicle, transtympanic

Question: For `COc1ccc2c(c1)N1CCC(C)(C)C1=CC(=O)[C@H]2NC(=O)[C@H](C)NC(=O)CCC(F)(F)F` [CPD3], which “Time at which mean maximal perilymph concentration was reached” value ([1]; 10% POX and 20% POX formulations, post-dosing) is on record?
Answer: Its value is 0.5 h.

Question: And the “Mean maximal perilymph concentration at 0.5 h post-dosing” value ([1]; 10% POX vehicle, transtympanic)?
Answer: Its value is 85,489 ng/ml and 183 μM.

Question: What about the Perilymph concentrations quantifiable ([1]; 10% POX, sampled at 0.5, 1 and 6 h post-dosing) of the same compound?
Answer: The Perilymph concentrations quantifiable was “quantifiable at all time points”.

Question: What about the concentration at 1 h [1, 3] of the same compound?
Answer: The concentration at 1 h was 12900 ng/mL and 27.7 µM.

Question: And the concentration at 6 h [1, 3]?
Answer: The concentration at 6 h was 12700 ng/mL and 27.1 µM.

Question: And the concentration at 48 h ([1]; female, Hartley, guinea pig, perilymph, other: transtympanic (middle ear injection), 870 μg/kg, single transtympanic dose 3.4 mg/ml, 70 μl, span over the vehicle formulations (10% POX, 20% POX, HA, PEG400))?
Answer: The concentration at 48 h was 485 ng/mL to 1000 ng/mL and 1 µM to 2.1 µM.

Question: And the “Increase of OHC numbers after sisomicin” value ([2]; 4 days culture, apex)?
Answer: The value was “not statistically significant”.

Question: And the “Pou4f3/Sox2 double-positive cells after sisomicin” value ([2]; 4 days, p = 0.057)?
Answer: Its value is “observed only in the apical domain”.
